Where two headings read alike, the source gives them in different places.
Tests used:
CDK6/Cyclin D3 = CDK6/Cyclin D3 (Homo sapiens (Human), UniProt Q00534); experiment: CDK6/Cyclin D3 ADP-Glo Kinase Assay; format: biochemical; conditions: 100 uM ATP, read-out: CDK6/ CyclinD3 IC50
Method in brief: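 Enzyme and inhibitor were pre-incubated for 30 min at room temperature before ATP/substrate was added. The kinase reaction ran 90 min at room temperature, and ADP formed was detected by ADP-Glo luminescence. IC50 was fitted with a 4-parameter equation to fractional velocity versus inhibitor concentration.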

CDK4/Cyclin D1 = CDK4/Cyclin D1 (Homo sapiens (Human), UniProt P11802); experiment: CDK4/Cyclin D1 CHEF Assay (AQT0258 peptide); format: biochemical; conditions: 200 uM ATP, read-out: CDK4/ CyclinD1 AQT IC50
Sequence of CDK4/Cyclin D1 (P11802 whole entry): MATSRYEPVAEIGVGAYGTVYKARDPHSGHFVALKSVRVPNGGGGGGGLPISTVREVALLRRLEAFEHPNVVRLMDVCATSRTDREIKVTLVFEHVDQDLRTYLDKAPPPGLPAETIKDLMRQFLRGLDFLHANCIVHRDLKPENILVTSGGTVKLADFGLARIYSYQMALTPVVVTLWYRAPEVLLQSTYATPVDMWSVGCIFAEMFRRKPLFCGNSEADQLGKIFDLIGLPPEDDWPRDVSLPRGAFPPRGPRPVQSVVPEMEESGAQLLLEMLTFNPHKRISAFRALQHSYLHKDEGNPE
Sequence of CDK4/Cyclin D1 (P24385 whole entry partner): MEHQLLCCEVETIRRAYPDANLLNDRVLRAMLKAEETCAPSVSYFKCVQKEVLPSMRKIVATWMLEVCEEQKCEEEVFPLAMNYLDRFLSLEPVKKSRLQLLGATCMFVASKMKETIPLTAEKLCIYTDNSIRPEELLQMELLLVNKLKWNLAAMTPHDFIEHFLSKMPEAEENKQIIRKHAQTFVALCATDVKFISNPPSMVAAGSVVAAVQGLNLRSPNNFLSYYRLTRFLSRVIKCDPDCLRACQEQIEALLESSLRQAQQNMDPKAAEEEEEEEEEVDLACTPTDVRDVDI
Method in brief: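 Sox-labelled peptide AQT0258 phosphorylation read as chelation-enhanced fluorescence (ex 360/em 485 nm) with Mg(II). Enzyme preincubated with inhibitor 30 min at 22°C, substrate added, 3 h at 22°C; IC50 from four-parameter fit of fractional velocity versus inhibitor concentration.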

MCF-7 cells = experiment: Cell Growth Inhibition, MCF-7 (CellTiterGlo, 6 days); format: cell-based; conditions: Homo sapiens, MCF7, 144 h, MCF-7, 6-day treatment
Method in brief: (§1)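 MCF-7 (ER+ breast adenocarcinoma) or CCNE1-amplified OVCAR-3 cells, 500/well in RPMI with 10% FBS, treated with half-log dilutions typically 10-10,000 nM for 6 days at 37 °C. CellTiterGlo 2.0 luminescence gave % growth inhibition versus control; IC50 by four-parameter variable-slope fit.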

CDK1/Cyclin B1 = CDK1/Cyclin B1 (Homo sapiens (Human), UniProt P06493); experiment: CDK1/Cyclin B1 ADP-Glo Kinase Assay; format: biochemical
Sequence of CDK1/Cyclin B1 (P06493 whole entry): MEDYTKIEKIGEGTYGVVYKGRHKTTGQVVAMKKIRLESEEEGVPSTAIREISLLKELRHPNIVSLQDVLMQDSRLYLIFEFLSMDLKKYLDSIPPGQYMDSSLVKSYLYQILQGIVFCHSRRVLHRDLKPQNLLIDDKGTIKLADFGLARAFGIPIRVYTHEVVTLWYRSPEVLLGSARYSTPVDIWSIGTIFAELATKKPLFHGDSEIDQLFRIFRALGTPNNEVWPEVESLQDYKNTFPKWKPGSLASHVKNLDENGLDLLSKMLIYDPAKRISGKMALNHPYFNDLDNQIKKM
Sequence of CDK1/Cyclin B1 (P14635 whole entry partner): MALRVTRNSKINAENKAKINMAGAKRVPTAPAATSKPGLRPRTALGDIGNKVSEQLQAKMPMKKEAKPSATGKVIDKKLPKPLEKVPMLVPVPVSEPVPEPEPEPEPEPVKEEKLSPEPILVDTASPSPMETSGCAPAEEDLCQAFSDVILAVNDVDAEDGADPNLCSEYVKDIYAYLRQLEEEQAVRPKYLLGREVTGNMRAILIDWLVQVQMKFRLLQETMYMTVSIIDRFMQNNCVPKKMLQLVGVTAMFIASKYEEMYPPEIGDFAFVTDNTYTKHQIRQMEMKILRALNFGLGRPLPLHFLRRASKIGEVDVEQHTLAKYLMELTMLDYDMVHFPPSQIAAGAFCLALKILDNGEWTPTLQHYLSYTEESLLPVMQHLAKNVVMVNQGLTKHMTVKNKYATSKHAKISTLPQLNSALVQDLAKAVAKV
Method in brief: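 Enzyme and inhibitor pre-incubated 30 min at room temperature before ATP/substrate addition; reaction run 90 min at room temperature. ADP formed measured by ADP-Glo luminescence; IC50 from a 4-parameter fit of fractional velocity versus inhibitor concentration.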

CDK2/Cyclin E1 = CDK2/Cyclin E1 (Homo sapiens (Human), UniProt P24941); experiment: CDK2/Cyclin E1 Full length ADP-Glo Kinase Assay; format: biochemical; conditions: 20 uM ATP, read-out: CDK2/ CyclinE1 IC50
Method in brief: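 Full-length human CDK2/cyclin E1 was preincubated 30 min at room temperature with inhibitor, then reacted 90 min with ATP-containing substrate solution. ADP formed was measured by ADP-Glo luminescence; IC50 from 4-parameter fit of fractional velocity versus inhibitor concentration.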

OVCAR-3 cells = experiment: Cell Growth Inhibition, OVCAR-3 (CellTiterGlo, 6 days); format: cell-based; conditions: Homo sapiens, 144 h, OVCAR-3, 6-day treatment
Method in brief: as §1

[1] = ADP-Glo, 80 uM ATP, read-out: CDK1 Cyclin B1 IC50

Sequence of CDK6/Cyclin D3 (Q00534 whole entry): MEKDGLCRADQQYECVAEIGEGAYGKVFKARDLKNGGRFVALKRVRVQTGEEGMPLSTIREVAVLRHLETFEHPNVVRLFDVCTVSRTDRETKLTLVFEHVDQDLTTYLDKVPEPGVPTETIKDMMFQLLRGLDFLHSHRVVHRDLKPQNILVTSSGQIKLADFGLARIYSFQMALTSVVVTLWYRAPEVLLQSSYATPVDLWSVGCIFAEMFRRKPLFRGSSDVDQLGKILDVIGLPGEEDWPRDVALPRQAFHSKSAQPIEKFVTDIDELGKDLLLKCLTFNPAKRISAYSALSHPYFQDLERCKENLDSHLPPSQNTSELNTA
Sequence of CDK6/Cyclin D3 (P30281 whole entry partner): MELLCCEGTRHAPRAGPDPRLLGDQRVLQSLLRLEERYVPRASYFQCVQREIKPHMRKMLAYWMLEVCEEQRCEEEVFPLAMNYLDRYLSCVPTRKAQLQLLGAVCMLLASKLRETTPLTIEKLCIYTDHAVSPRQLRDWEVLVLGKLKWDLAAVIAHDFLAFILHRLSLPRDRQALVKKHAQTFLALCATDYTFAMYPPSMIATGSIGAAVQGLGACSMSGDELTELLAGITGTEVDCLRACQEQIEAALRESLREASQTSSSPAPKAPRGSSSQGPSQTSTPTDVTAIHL

Row | Compound | IC50 (CDK6/Cyclin D3) [nM] | IC50 (CDK4/Cyclin D1) [nM] | IC50 (MCF-7 cells) [nM] | IC50 (CDK1/Cyclin B1; [1]) [nM] | IC50 (CDK2/Cyclin E1) [nM] | IC50 (OVCAR-3 cells) [nM] | IC50 (CDK1/Cyclin B1) [nM]
1 | Cc1cc2cnc(NC3CCN(S(=O)(=O)C4CC4)CC3)nc2c(N2CC3(CC(O)C3)C2)n1 [Compound 66, 2-(2-((1-(cyclopropylsulfonyl)piperidin-4-yl)amino)-6-methylpyrido[3,4-d]pyrimidin-8-yl)-2-azaspiro[3.3]heptan-6-ol] | < 200 | < 200 | 500 to 2000 | 500 to 2000 | < 200 | 500 to 2000 | –
2 | Cc1cc2cnc(Nc3ccc4c(c3)CN(S(C)(=O)=O)C4)nc2c(N2CC3(CN(C)C3)C2)n1 [Compound 27, 6-methyl-8-(6-methyl-2,6-diazaspiro[3.3]heptan-2-yl)-N-(2-(methylsulfonyl)isoindolin-5-yl)pyrido[3,4-d]pyrimidin-2-amine] | 500 to 2000 | 500 to 2000 | > 2000 | 500 to 2000 | < 200 | 500 to 2000 | –
3 | Cc1cc2cnc(N[C@@H]3CCOC[C@H]3O)nc2c(N2CC(O)(C3CC3)C2)n1 [Compound 86, 3-cyclopropyl-1-(2-(((3S,4R)-3-hydroxytetrahydro-2H-pyran-4-yl)amino)-6-methylpyrido[3,4-d]pyrimidin-8-yl)azetidin-3-ol] | 200 to 500 | < 200 | > 2000 | > 2000 | 200 to 500 | > 2000 | –
4 | Cc1cc2cnc(NC3CCN(S(=O)(=O)C4(C)CC4)CC3)nc2c(N2CCC3(CN(C)C3)C2)n1 [Compound 59, 6-methyl-8-(2-methyl-2,6-diazaspiro[3.4]octan-6-yl)-N-(1-((1-methylcyclopropyl)sulfonyl)piperidin-4-yl)pyrido[3,4-d]pyrimidin-2-amine] | < 200 | < 200 | 500 to 2000 | 500 to 2000 | < 200 | 500 to 2000 | –
5 | Cc1cc2cnc(Nc3cnn(C4CC5(C4)CN(C)C5)c3)nc2c(N2CC3(C2)CN(S(C)(=O)=O)C3)n1 [Compound 26, 6-methyl-N-(1-(2-methyl-2-azaspiro[3.3]heptan-6-yl)-1H-pyrazol-4-yl)-8-(6-(methylsulfonyl)-2,6-diazaspiro[3.3]heptan-2-yl)pyrido[3,4-d]pyrimidin-2-amine] | 500 to 2000 | 200 to 500 | > 2000 | > 2000 | 200 to 500 | > 2000 | –
6 | CN1Cc2ccc(Nc3ncc4ccnc(N5CCC6(CCN(S(C)(=O)=O)C6)C5)c4n3)cc2C1 (stereo not drawn) [Compound 23, N-(2-methylisoindolin-5-yl)-8-(7-(methylsulfonyl)-2,7-diazaspiro[4.4]nonan-2-yl)pyrido[3,4-d]pyrimidin-2-amine] | < 200 | < 200 | < 200 | 500 to 2000 | < 200 | < 200 | –
7 | Cc1cc2cnc(NC3CCN(S(C)(=O)=O)CC3)nc2c(N2CCC3(C2)CC3(F)F)n1 (stereo not drawn) [Compound 41, 8-(1,1-difluoro-5-azaspiro[2.4]heptan-5-yl)-6-methyl-N-(1-(methylsulfonyl)piperidin-4-yl)pyrido[3,4-d]pyrimidin-2-amine] | < 200 | < 200 | > 2000 | < 200 | < 200 | > 2000 | –
8 | Cc1cc2cnc(Nc3ccc(N4CC5(CN(C)C5)C4)cc3)nc2c(N2CCC3(CCOCC3)C2)n1 [Compound 35, 6-methyl-N-(4-(6-methyl-2,6-diazaspiro[3.3]heptan-2-yl)phenyl)-8-(8-oxa-2-azaspiro[4.5]decan-2-yl)pyrido[3,4-d]pyrimidin-2-amine] | < 200 | < 200 | 500 to 2000 | > 2000 | 200 to 500 | 500 to 2000 | –
9 | Cc1cc2cnc(Nc3ccc(N4CC5(CN(C)C5)C4)cc3)nc2c(N2CCC3(C2)CC3(F)F)n1 (stereo not drawn) [Compound 34, 8-(1,1-difluoro-5-azaspiro[2.4]heptan-5-yl)-6-methyl-N-(4-(6-methyl-2,6-diazaspiro[3.3]heptan-2-yl)phenyl)pyrido[3,4-d]pyrimidin-2-amine] | < 200 | < 200 | 500 to 2000 | 500 to 2000 | < 200 | 500 to 2000 | –
10 | Cc1cc2cnc(Nc3cnn(C4CC5(C4)CN(C)C5)c3)nc2c(N2CCC3(C2)CC3(F)F)n1 (stereo not drawn) [Compound 33, 8-(1,1-difluoro-5-azaspiro[2.4]heptan-5-yl)-6-methyl-N-(1-(2-methyl-2-azaspiro[3.3]heptan-6-yl)-1H-pyrazol-4-yl)pyrido[3,4-d]pyrimidin-2-amine] | < 200 | < 200 | 500 to 2000 | 500 to 2000 | 200 to 500 | 500 to 2000 | –
11 | Cc1cc2cnc(NC3CCN(S(C)(=O)=O)CC3)nc2c(C2CC3(C2)CN(C)CCO3)n1 (stereo not drawn) [Compound 84, 6-methyl-8-(8-methyl-5-oxa-8-azaspiro[3.5]nonan-2-yl)-N-(1-(methylsulfonyl)piperidin-4-yl)pyrido[3,4-d]pyrimidin-2-amine] | < 200 | < 200 | 500 to 2000 | 200 to 500 | < 200 | 500 to 2000 | –
12 | [2H]C([2H])([2H])N1CC2(CN(c3nc(C)cc4cnc(NC5CCN(S(=O)(=O)c6cnn(C)c6)CC5)nc34)CC2(F)F)C1 [Example 11, 8-(8,8-difluoro-2-(methyl-d3)-2,6-diazaspiro[3.4]octan-6-yl)-6-methyl-N-(1-((1-methyl-1H-pyrazol-4-yl)sulfonyl)piperidin-4-yl)pyrido[3,4-d]pyrimidin-2-amine] | < 200 | < 200 | 500 to 2000 | – | < 200 | 200 to 500 | < 200
13 | Cc1cc2cnc(NC3CCN(S(=O)(=O)CCC4(C)CC4)CC3)nc2c(N2CC(F)(F)C3(CNC3)C2)n1 [Compound 67, 8-(8,8-difluoro-2,6-diazaspiro[3.4]octan-6-yl)-6-methyl-N-(1-((2-(1-methylcyclopropyl)ethyl)sulfonyl)piperidin-4-yl)pyrido[3,4-d]pyrimidin-2-amine] | 200 to 500 | < 200 | > 2000 | 200 to 500 | < 200 | > 2000 | –
14 | Cc1cc2cnc(Nc3cc4c(cc3F)CN(S(C)(=O)=O)C4)nc2c(N2CC3(CCNC3)C2)n1 [Example 39, N-(6-fluoro-2-(methylsulfonyl)isoindolin-5-yl)-6-methyl-8-(2,6-diazaspiro [3.4]octan-2-yl)pyrido[3,4-d]pyrimidin-2-amine] | > 2000 | 200 to 500 | 500 to 2000 | > 2000 | < 200 | > 2000 | –
15 | Cc1cc2cnc(Nc3cc4c(cc3F)CN(S(C)(=O)=O)C4)nc2c(N2CC3(CNC3)C2)n1 [Compound 37, N-(6-fluoro-2-(methylsulfonyl)isoindolin-5-yl)-6-methyl-8-(2,6-diazaspiro[3.3]heptan-2-yl)pyrido[3,4-d]pyrimidin-2-amine] | > 2000 | > 2000 | > 2000 | > 2000 | 200 to 500 | > 2000 | –
16 | Cc1cc2cnc(NC3CCN(S(C)(=O)=O)CC3)nc2c(N2CC3(CNCC3(F)F)C2)n1 [Compound 85, 8-(8,8-difluoro-2,6-diazaspiro[3.4]octan-2-yl)-6-methyl-N-(1-(methylsulfonyl)piperidin-4-yl)pyrido[3,4-d]pyrimidin-2-amine] | < 200 | < 200 | 500 to 2000 | < 200 | < 200 | 500 to 2000 | –
17 | Cc1cc2cnc(NC3CCN(S(C)(=O)=O)CC3)nc2c(N2CCC3(C2)CC(F)(F)C3)n1 [Compound 53, 8-(2,2-difluoro-6-azaspiro[3.4]octan-6-yl)-6-methyl-N-(1-(methylsulfonyl)piperidin-4-yl)pyrido[3,4-d]pyrimidin-2-amine] | < 200 | < 200 | > 2000 | > 2000 | < 200 | > 2000 | –
18 | Cc1cc2cnc(NC3CCN(S(C)(=O)=O)CC3)nc2c(N2CC3(CC(O)C3)C2)n1 [Compound 73, 2-(6-methyl-2-((1-(methylsulfonyl)piperidin-4-yl)amino)pyrido[3,4-d]pyrimidin-8-yl)-2-azaspiro[3.3]heptan-6-ol] | 200 to 500 | < 200 | > 2000 | 500 to 2000 | < 200 | > 2000 | –

Source: patent publication US20240034731A1, “AZA-QUINAZOLINE COMPOUNDS AND METHODS OF USE” (Iambic Therapeutics, Inc., priority 2022, published 2024)
